{"source": "patent US20040110821A1", "about": "“GAL3 receptor antagonists for the treatment of affective disorders” (priority 2002, published 2004)", "key": {"human 5HT6 receptor": {"target": "T1, human 5HT6 receptor (Homo sapiens, UniProt P50406)", "T1 construct": "expressed in transfected cells", "T1 sequence (P50406 whole entry)": "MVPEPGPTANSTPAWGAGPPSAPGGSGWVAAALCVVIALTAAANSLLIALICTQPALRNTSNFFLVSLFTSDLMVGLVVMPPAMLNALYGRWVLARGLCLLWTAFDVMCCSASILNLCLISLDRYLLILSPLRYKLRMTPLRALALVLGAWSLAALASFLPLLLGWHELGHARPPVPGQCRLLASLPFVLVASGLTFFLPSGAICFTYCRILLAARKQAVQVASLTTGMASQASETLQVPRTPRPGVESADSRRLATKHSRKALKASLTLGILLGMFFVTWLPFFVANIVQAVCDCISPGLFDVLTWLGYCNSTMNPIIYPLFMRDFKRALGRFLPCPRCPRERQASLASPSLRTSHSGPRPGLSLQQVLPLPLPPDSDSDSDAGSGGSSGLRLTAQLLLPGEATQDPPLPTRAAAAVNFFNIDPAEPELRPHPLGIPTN", "experiment": "Radioligand binding at 5-HT6 receptor", "details": "read-out: h5HT6 Ki", "description": "(§1) Other 5-HT ReceDtors: Other serotonin receptor binding assays were performed according to published methods: rat 5HT2c receptor (Julius et al., 1988); and 5-HT6 (Monsma, et al., 1993). The binding assays using the 5-HT4 receptor were performed according to the procedures described in U.S. Pat. No. 5,766,879, the disclosure of which is hereby incorporated by reference in its entirety into this application.\n(§2) Binding data were analyzed using nonlinear regression and statistical techniques available in the GraphPAD Prism package (San Diego, Calif.). Enzymatic assay data were derived from a standard curve of reference compound data."}, "[1]": {"target": "T2, Monoamine Oxidase A (central) (Rattus norvegicus, UniProt P21396)", "T2 construct": "Rat brain was used as the enzyme source; tissue NovaScreen (Hanover, Md.) performed the assay; host or cells: rat brain", "T2 sequence (P21396 whole entry)": "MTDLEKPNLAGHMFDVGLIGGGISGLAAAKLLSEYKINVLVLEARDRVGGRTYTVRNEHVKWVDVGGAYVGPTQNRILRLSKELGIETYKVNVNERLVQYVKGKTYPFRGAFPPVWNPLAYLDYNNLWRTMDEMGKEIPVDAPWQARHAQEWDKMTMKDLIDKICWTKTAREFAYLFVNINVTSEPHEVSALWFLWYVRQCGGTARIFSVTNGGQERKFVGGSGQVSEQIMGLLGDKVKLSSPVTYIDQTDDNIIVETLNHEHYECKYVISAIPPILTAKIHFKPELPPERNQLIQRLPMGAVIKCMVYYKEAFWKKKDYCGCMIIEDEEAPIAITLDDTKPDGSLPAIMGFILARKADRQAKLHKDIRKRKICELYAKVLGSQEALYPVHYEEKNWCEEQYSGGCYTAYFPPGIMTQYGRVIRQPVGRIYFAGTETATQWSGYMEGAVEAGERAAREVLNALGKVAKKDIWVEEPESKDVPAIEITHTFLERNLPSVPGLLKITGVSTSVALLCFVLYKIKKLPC", "experiment": "Central Monoamine Oxidase A Enzyme Assay", "type": "biochemical", "details": "rat brain as enzyme source", "description": "(§3) The methods to determine activity at monoamine oxidase enzymes (for example, central MAOA and MAOB) are described by Otsuka and Kobayashi, 1964, and were performed by NovaScreen (Hanover, Md.) with the following modifications.\nCentral Monoamine Oxidase A Enzyme Assay: Rat brain was used as the enzyme source. The enzyme source was pre-incubated with reference compound (RO 41-1049), test compound (Example 92), and subtype selective blocker (100 nM deprenyl) for 60 minutes at 37° C. in 50 mM KPO4 containing 50 μM EDTA and 10 μM dithiothreitol (pH 7.2 at 25° C.). Substrate ([^14C]Serotonin, […]) was then added and incubated for 30 minutes. The reaction was stopped by the addition of 0.5 ml of 1-2M citric acid. Radioactive product was extracted into xylene/ethyl acetate fluor and compared to control values by scintillation spectrophotometry in order to ascertain any interactions of test compound with central MAOA.\nas §2"}, "[2]": {"target": "T3, human α2A adrenergic receptor (Homo sapiens, UniProt P08913)", "T3 construct": "expressed in transfected cells", "T3 sequence (P08913 whole entry)": "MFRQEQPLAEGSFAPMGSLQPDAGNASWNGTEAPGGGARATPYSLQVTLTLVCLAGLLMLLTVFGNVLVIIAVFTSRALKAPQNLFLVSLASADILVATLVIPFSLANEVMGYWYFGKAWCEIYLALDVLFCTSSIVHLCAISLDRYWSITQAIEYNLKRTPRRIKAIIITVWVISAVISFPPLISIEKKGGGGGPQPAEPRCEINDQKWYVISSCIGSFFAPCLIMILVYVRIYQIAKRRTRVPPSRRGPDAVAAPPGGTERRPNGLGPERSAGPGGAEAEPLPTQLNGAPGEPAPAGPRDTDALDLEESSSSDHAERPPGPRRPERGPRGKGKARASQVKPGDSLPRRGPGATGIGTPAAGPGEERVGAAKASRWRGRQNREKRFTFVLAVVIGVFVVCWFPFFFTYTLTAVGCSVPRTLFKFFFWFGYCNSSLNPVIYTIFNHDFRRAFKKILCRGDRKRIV", "experiment": "Binding at human α2A adrenergic receptor", "details": "read-out: hα2A Ki", "excerpt": "(§4) Other receptors: Cell membranes expressing human dopamine D1, D2, D4 and rat D3 receptors were purchased through BioSignal, Inc. (Montreal, Canada). Binding assays using the histamine H1 receptor; dopamine receptors; and α1A, α1B, and α2 adrenergic receptors may be carried out according to the procedures described in U.S. Pat. No. 5,780,485, the disclosure of which is hereby incorporated by reference in its entirety into this application. Binding assays using the dopamine D5 receptor may be carried out according to the procedures described in U.S. Pat. No. 5,882,855, the disclosure of which is hereby incorporated by reference in its entirety into this application. Binding assays for the human α1D adrenergic receptor may be carried out according to the procedures described in U.S. Pat. No. 6,156,518, the disclosure of which is hereby incorporated by reference in its entirety into this application.\nas §2"}, "[3]": {"target": "T4, human dopamine D1 receptor (Homo sapiens, UniProt P21728)", "T4 construct": "purchased BioSignal, Inc. (Montreal, Canada)", "T4 sequence (P21728 whole entry)": "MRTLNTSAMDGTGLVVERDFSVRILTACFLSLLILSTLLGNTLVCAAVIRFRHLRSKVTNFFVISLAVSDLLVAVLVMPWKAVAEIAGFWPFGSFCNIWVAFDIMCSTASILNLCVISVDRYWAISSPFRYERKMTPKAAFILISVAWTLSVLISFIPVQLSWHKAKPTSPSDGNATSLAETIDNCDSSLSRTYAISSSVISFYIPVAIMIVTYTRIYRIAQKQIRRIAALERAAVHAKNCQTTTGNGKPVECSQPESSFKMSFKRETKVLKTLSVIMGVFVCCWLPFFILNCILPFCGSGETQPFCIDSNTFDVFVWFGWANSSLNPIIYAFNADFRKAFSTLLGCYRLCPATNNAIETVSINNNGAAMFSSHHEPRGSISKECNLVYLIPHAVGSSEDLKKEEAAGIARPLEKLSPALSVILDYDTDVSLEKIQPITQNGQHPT", "experiment": "Binding at human dopamine D1 receptor", "details": "read-out: hD1 Ki", "excerpt": "as §4, §2"}, "human 5HT4 receptor": {"target": "T5, human 5HT4 receptor (Homo sapiens, UniProt Q13639)", "T5 construct": "expressed in transfected cells", "T5 sequence (Q13639 whole entry)": "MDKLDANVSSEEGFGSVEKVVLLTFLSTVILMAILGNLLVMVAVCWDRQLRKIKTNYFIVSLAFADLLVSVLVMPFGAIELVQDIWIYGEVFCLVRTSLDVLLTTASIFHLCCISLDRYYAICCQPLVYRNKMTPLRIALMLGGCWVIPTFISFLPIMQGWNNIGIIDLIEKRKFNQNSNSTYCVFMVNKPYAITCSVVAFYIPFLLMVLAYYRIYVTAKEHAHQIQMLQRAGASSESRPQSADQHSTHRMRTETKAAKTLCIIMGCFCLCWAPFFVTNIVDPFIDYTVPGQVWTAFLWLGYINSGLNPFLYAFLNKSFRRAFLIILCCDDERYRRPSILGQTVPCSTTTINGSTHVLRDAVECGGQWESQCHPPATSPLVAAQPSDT", "experiment": "Radioligand binding at 5-HT4 receptor", "details": "read-out: h5HT4 Ki", "description": "as §1, §2"}, "5HT transporter": {"target": "T6, 5HT transporter (Rattus norvegicus, UniProt P31652)", "T6 construct": "native, tissue-derived transporters; from tissue", "T6 sequence (P31652 whole entry)": "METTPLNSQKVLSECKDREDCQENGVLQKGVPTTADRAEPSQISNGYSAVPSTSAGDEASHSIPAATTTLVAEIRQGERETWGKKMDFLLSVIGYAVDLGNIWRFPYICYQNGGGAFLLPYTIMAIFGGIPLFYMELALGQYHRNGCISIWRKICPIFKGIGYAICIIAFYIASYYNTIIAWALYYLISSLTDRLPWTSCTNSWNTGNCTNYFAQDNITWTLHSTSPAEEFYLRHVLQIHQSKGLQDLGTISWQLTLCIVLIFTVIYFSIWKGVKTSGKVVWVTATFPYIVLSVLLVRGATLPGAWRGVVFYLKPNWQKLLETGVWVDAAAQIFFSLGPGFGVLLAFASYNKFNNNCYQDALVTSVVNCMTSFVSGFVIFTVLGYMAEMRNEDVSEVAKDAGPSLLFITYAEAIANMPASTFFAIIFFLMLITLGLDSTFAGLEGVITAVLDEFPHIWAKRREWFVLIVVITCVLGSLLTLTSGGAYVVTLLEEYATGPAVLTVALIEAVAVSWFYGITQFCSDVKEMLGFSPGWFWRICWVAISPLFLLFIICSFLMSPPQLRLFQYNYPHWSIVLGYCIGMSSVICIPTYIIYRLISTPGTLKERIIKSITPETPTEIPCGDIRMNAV", "experiment": "Binding at native 5HT transporter", "details": "read-out: r5HT Uptk Ki", "description": "The methods to determine binding affinity at native transporters are described in the following publications: 5HT transporter and NE transporter (Owens et al., 1997), and DA transporter (Javitch et al, 1984).\nas §2"}, "[4]": {"target": "T7, Monoamine Oxidase B (central) (Rattus norvegicus, UniProt P19643)", "T7 construct": "Rat brain was used as the enzyme source; tissue NovaScreen (Hanover, Md.) performed the assay; host or cells: rat brain", "T7 sequence (P19643 whole entry)": "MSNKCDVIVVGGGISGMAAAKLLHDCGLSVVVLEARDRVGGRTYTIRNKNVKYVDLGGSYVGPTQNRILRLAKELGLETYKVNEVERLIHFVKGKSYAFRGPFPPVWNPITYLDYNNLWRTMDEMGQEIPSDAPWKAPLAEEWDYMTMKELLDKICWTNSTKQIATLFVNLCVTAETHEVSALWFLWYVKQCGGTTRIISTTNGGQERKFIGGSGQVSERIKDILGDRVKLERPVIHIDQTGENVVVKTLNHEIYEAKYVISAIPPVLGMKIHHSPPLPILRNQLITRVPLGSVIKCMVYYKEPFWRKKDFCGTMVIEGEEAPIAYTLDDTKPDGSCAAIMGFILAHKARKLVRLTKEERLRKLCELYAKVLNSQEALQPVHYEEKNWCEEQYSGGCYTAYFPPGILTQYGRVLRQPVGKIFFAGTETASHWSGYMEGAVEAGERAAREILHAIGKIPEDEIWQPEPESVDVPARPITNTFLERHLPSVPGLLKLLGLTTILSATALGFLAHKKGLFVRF", "experiment": "Central Monoamine Oxidase B Enzyme Assay", "type": "biochemical", "details": "rat brain as enzyme source", "description": "as §3\nCentral Monoamine Oxidase B Enzyme Assay: Rat brain was used as the enzyme source. The assay was performed as described above for central MAOA, except the reference compound was RO 166491 and the subtype selective blocker was 100 nM clorgyline. Also, the substrate ([^14C]Phenylethylamine, 0.056 Ci/mmol) was added and incubated for 10 minutes.\nas §2"}}}
{"smiles": "O=C1C(=Nc2cccc(C(F)(F)F)c2)c2ccccc2N1c1ccccc1", "note": "[Example 92, 1-PHENYL-3-[[3-(TRIFLUOROMETHYL)PHENYL]IMINO]-1,3-DIHYDRO-2H-INDOL-2-ONE]", "values": [{"measurement": "Ki", "setting": "human 5HT6 receptor", "result": "> 50", "unit": "µM"}, {"measurement": "% INHIBITION", "setting": "[1]", "result": 10, "unit": "%"}, {"measurement": "Ki", "setting": "[2]", "result": 21.9, "unit": "µM"}, {"measurement": "Ki", "setting": "[3]", "result": "> 50", "unit": "µM"}, {"measurement": "Ki", "setting": "human 5HT4 receptor", "result": 0.072, "unit": "µM"}, {"measurement": "Ki", "setting": "5HT transporter", "result": 45.1, "unit": "µM"}, {"measurement": "% INHIBITION", "setting": "[4]", "result": 1, "unit": "%"}]}
